One block for each compound: values may come before it.
What was measured:
BM-MSC [1] = test: Western blots in BM-MSC; format: cell-based, human
Protocol: (§1) Epinephrine (EPI: Sigma) and TLR2 ligands (macrophage activating lipoprotein-2: MALP2—that specifically activates TLR2/6 heterodimerization, and heat killed Staphylococcus aureus: HKSA; Invivogen) treatments were carried out at the indicated times and concentrations. All the cells were maintained in 0.5% fetal bovine serum containing culture medium overnight prior to treatment. Cells were exposed to different treatments in fresh serum-free medium. In some experiments, cells were pretreated for 30 minutes with Timolol (10 μM; Sigma) or ICI-118, 551 (ICI; 10 μM; Tocris) followed by EPI and MALP2 treatment as described previously (11-13, 30).
(§2) Twenty five μg of total protein was resolved, transferred, and probed with antibodies for β2-AR (Abcam), phospho beta-adrenergic receptor activated kinase-1 (BARK-1/GRK2 referred to as BARK-1 from here after; GeneTex), TLR2 (Imgenex) Myeloid differentiation factor 88 (MyD88; Imgenex), phospho interleukin receptor activated kinase-1 (pIRAK-1 and IRAK-1; Cell Signaling), phospho ERK1/2 (Santacruz), phenylethanolamine N-methyltransferase (PNMT) and tyrosine hydroxylase (TH), and stripped membranes were further incubated with respective total antibodies or GAPDH or α-tubulin. TLR2 (Imgenex) and β2-AR (Santacruz) antibodies were used for co-immunoprecipation assays and antibody protein complexes were further probed with above antibodies β1). Protein A/G-sepharose beads and isotype matched IgG antibodies were used as negative controls in all the co-immunoprecipitation experiments along with the antibody used for the pull down as a positive control. Band intensities were determined as described previously and normalized to GAPDH/α-tubulin or total protein (BARK-1) and densitometric ratios are presented as fold change vs control β1). For some experiments, cell lysates from three independent experiments were pooled to get enough protein for the assay and repeated three times for densitometry purposes.

murine macrophages = conditions: epinephrine pretreatment; cited from earlier work
[2] = tested on: monocytic cell line and rat macrophages; conditions: supraphysiologic levels of EPI (5000-10,000 ng/ml); cited from earlier work
BM-MSC [3] = test: Real time PCR (TLR2, ADRB2 mRNA) in BM-MSC; format: cell-based, human
Protocol: as §1
mRNA expression was determined by real-time PCR (RT-PCR), using sequence-specific primers and probes. Total RNA was extracted from the cells using Qiagen RNeasy mini kit. The first strand of cDNA was synthesized using 1 μg of total RNA. cDNA (50 ng) was amplified using primer probe sets for TLR2, beta-2-adrenergic receptor (ADRB2) and three housekeeping genes: beta-2-microglobulin, GAPDH, and RPLPO using standard cycling parameters. Data were calculated using the 2-ΔΔCt method and are presented as fold change (ratio of transcripts of gene normalized to the three house-keeping genes) (11-13, 31).

NHK [4] = test: Secreted IL-6 ELISA in NHK; format: cell-based, human; conditions: for increase in IL-6 secretion as compared to untreated NHK: four hours, EPI 50 nM, MALP2 100 ng/ml, HKSA 10^4 cells/ml
From the text: NHK were isolated from human neonatal foreskins, cultured and maintained, as reported earlier (28,29). NHKs isolated from at least three different foreskins and between passages 3 and 7 were used in all the experiments. The Institutional Review Board at UC Davis approved the protocol for obtaining discarded neonatal foreskins.
as §1
(§3) Levels of interleukin-6 (IL-6) were measured with an ELISA kit (R&D systems). IL-6 levels were normalized to total cell protein and expressed as pg/μg protein β1).

C57BL/6J mice = test: Full-thickness cutaneous wounds in EPI stressed mice (osmotic pumps); format: in vivo, mouse; conditions: for wound closure: EPI 7 mg/kg body weight/day, ICI 0.7 mg/kg body weight/day by osmotic pump; for TLR2 expression in wound tissue: day 7 after injury; for IL-6 levels in the wound tissue / phosphorylation of ERK1/2 in wounds: mouse, in vivo
Protocol: C57BL/6J (male; 8-10 week age; Jax Mice) with ad libitum access to food and water were anesthetized using isoflurane and one 6 mm circular diameter full-thickness wound was placed on the dorsal shaved skin β1). Micro-osmotic pumps (0.25 μl/hour; Alzet micro-osmotic pump Model: 1002, Alzet) were implanted on the right flank of the mice to deliver 7 mg/kg body weight/day EPI and 0.7 mg/kg body weight/day of ICI) as we have previously reported (11-13,30). At 7 or 11 days after injury, the mice were euthanized, the wound tissue was harvested by 8 mm punch excision and stored frozen or formalin—fixed until further analysis. Animal protocols were approved by the IACUC at UC Davis.

BM-MSC [5] = test: Secreted IL-6 ELISA in BM-MSC; format: cell-based, human; conditions: for increase in IL-6 secretion as compared to untreated control cells: four hours, EPI 50 nM, MALP2 100 ng/ml, HKSA 10^4 cells/ml
From the text: (§4) Human bone marrow aspirations obtained from four healthy donors were purchased from Lonza. MSC were harvested from bone marrow (BM) following established protocols (26, 27), and used between passages 3-5. Characterization of MSC included differentiation into osteogenic and adipogenic lineage cells, as described previously (27). The stem cell research oversight (SCRO) review board at the University of California, Davis approved all the human cell protocols.
as §1, §3

Bone marrow MSCs = test: BM-MSC migration tracked for 12 hours after antagonist treatment (FIG. 11); format: cell-based, human; conditions: treated 1 hour, tracked 12 hours
Protocol: FIG. 11 illustrates that results are not limited to one class of beta adrenergic antagonist. Bone marrow MSCs from two different individuals were cultured and treated with either a non-specific beta adrenergic receptor antagonist (timolol) or a beta 2 adrenergic receptor specific antagonist (ICI 118,551) at stated concentrations for 1 hour, then cell migration was tracked for 12 hours. For each experiment 80-90 cells were tracked. Means+/−SEM shown, *=p<0.005.

NHK [6] = test: Scratch wound assay in confluent NHK cultures; format: cell-based, human; conditions: 30 minutes pretreatment; for IL-6 secretion in wounded NHK confluent sheets: antagonists 10 μM; for effect on EPI+MALP2 or EPI+HKSA delayed NHK migration: scratch-wounded NHK, antagonist 10 μM
Protocol: as §3
The rate of healing scratch wounds made in confluent NHK cultures was determined as reported previously (30, 32). Briefly, cells were pretreated with 10 μg/ml mitomycin (EMD Millipore) for 1 hr to inhibit cell proliferation that could skew the data analysis. Wounded cultures were incubated in growth medium (control) containing EPI, TLR2 ligands, and/or Timolol or ICI. Velocity Image analysis software (Perkin Elmer) was used to measure the scratch wound area, which is expressed as percent closed wound.

[7] = cited from earlier work
RAW 264.7 macrophages = conditions: cited from earlier work
BM-MSC [8] = test: HPLC detection of catecholamines in BM-MSC supernatants; format: cell-based, human; conditions: MALP2 100 ng/ml
Protocol: (§5) Cell culture samples from at least from three independent experiments were acidified with perchloric acid to 0.2N prior to storage at −80° C. for future analysis. The supernatant were applied to conditioned MonoSpin® PBA solid phase extraction spin columns (GL Sciences) and purifications were performed according to the manufacturer's specifications. Catecholamines were eluted in 200 μL of 2% acetic acid.
(§6) HPLC separation was performed using a Synergi™ 4 um Fusion-reverse phase 250×4.6 mm column (Phenomenex) and a HP series 1050 pump and auto injector system. The mobile phase for chromatographic separation was a modification of that used by Leis et al (33). Detection of catecholamine compounds was performed using a LC-4C amperometric detector (Bioanalytical Systems) using potential of […]. Catecholamine levels are presented as pg/μg cell protein.

NHK [9] = test: Co-immunoprecipitation with β2-AR and TLR2 antibody in NHK; format: cell-based, human; conditions: MALP2 100 ng/ml
From the text: as §2

NHK [10] = test: HPLC detection of catecholamines in NHK supernatants; format: cell-based, human
Protocol: as §5, §6

BM-MSC [11] = test: Single-cell migration of BM-MSC; format: cell-based, human; conditions: EPI 50 nM, MALP2 100 ng/ml, Timolol 10 μM, 30 min pretreatment
From the text: as §4, §1

NHK [12] = test: Western blots (PNMT, TH) in NHK; format: cell-based, human
Protocol: as §1
Twenty five μg of total protein was resolved, transferred, and probed with antibodies for β2-AR (Abcam), phospho beta-adrenergic receptor activated kinase-1 (BARK-1/GRK2 referred to as BARK-1 from here after; GeneTex), TLR2 (Imgenex) Myeloid differentiation factor 88 (MyD88; Imgenex), phospho interleukin receptor activated kinase-1 (pIRAK-1 and IRAK-1; Cell Signaling), phospho ERK1/2 (Santacruz), phenylethanolamine N-methyltransferase (PNMT) and tyrosine hydroxylase (TH), and stripped membranes were further incubated with respective total antibodies or GAPDH or α-tubulin. TLR2 (Imgenex) and β2-AR (Santacruz) antibodies were used for co-immunoprecipation assays and antibody protein complexes were further probed with above antibodies β1). […]

[13] = BM-MSC, Timolol 10 μM, 30 min pretreatment

Compound: CNC[C@H](O)c1ccc(O)c(O)c1 [EPI, Epinephrine]
BARK-1 phosphorylation (BM-MSC [1]): increased | MyD88 protein expression (BM-MSC [1]; EPI 50 nM): significantly elevated | TLR2 protein levels (BM-MSC [1]; EPI 50 nM): significantly increased | TNF-α production with LPS stimulation (murine macrophages): significantly increases | TLR4 mRNA expression [2]: decreases | TLR2 mRNA expression (BM-MSC [3]; EPI 50 nM): significantly increased | increase in IL-6 secretion as compared to untreated NHK (NHK [4]): 16 fold | wound closure (C57BL/6J mice): significantly decreased | TLR2 expression in wound tissue (C57BL/6J mice): increased | IL-6 levels in the wound tissue (C57BL/6J mice): significantly elevated | phosphorylation of ERK1/2 in wounds (C57BL/6J mice): Decreased | increase in IL-6 secretion as compared to untreated control cells (BM-MSC [5]; BM-MSC): 3.8 fold | EPI concentration of maximal induction of IL-6 secretion (BM-MSC [5]; EPI 50-1000 nM, 4 hr and 24 hr): 50 nM

IL-6 release by human keratinocytes under β adrenergic receptor antagonist (NHK [4]): suppression
Compound: Cc1ccc(OCC(O)C(C)NC(C)C)c2c1CCC2 (stereo not drawn) [ICI 118,551]
migratory speed of bone marrow derived MSC (Bone marrow MSCs): increase migratory speed | IL-6 secretion in wounded NHK confluent sheets (NHK [6]): reverses | effect on EPI+MALP2 or EPI+HKSA delayed NHK migration (NHK [6]): reverses | wound closure (C57BL/6J mice): reversed | TLR2 expression in wound tissue (C57BL/6J mice): reversed | IL-6 levels in the wound tissue (C57BL/6J mice): decreased | phosphorylation of ERK1/2 in wounds (C57BL/6J mice): increases

Compound: CC(C)(C)NCC(O)COc1cccc2c1CC(O)C(O)C2 (stereo not drawn) [Nadolol]
lipid solubility [7]: low

IL-6 release by human keratinocytes under β adrenergic receptor antagonist (NHK [4]): suppression
Compound: CC(C)(C)NC[C@H](O)COc1nsnc1N1CCOCC1 [Timolol]
migratory speed of bone marrow derived MSC (Bone marrow MSCs): increase migratory speed | IL-6 secretion in wounded NHK confluent sheets (NHK [6]): reverses | effect on EPI+MALP2 or EPI+HKSA delayed NHK migration (NHK [6]): reverses | decrease of EPI+HKSA induced IL-6 secretion by pretreatment (BM-MSC [5]; [13]): 1.5 fold | decrease of EPI+MALP2 induced IL-6 secretion by pretreatment (BM-MSC [5]; [13]): 33 fold | IL-6 levels (BM-MSC [5]; BM-MSC, mean±SD, antagonist 10 μM, 30 min pretreatment): 4.8±2.7 pg/μg protein

Compound: OCc1cc(C(O)CNCCCCCCOCCCCc2ccccc2)ccc1O (stereo not drawn) [salmeterol]
IL-1β and IL-6 protein production (RAW 264.7 macrophages): significant increase | increase in IL-1β transcripts (RAW 264.7 macrophages): 80 fold | increase in IL-6 transcripts (RAW 264.7 macrophages): 8 fold

β2-adrenergic receptor mRNA expression (BM-MSC [3]; MALP2 100 ng/ml): significantly up-regulated
Compound: MALP2
BARK-1 phosphorylation (BM-MSC [1]): significantly increased | PNMT and TH enzymes (BM-MSC [1]): induced | β2-adrenergic receptor protein expression (BM-MSC [1]; MALP2 100 ng/ml): significantly up-regulated | EPI and norepinephrine levels in cell culture supernatants (BM-MSC [8]): increased | β2-AR expression and BARK-1 phosphorylation in TLR2 immunoprecipitates (NHK [9]): noticeable increase | catecholamine response of NHKs relative to BM-MSC (NHK [10]; MALP2 treated): 2-4 fold | EPI and norepinephrine levels in cell culture supernatants (NHK [10]; NHK, MALP2 100 ng/ml): increased | inhibition in migratory speed (BM-MSC [11]): 15% | increase in IL-6 secretion as compared to untreated NHK (NHK [4]): 8.8 fold | increase in IL-6 secretion as compared to untreated control cells (BM-MSC [5]; BM-MSC): 2.6 fold | PNMT and TH enzymes (NHK [12]): induced

Compound: Polymyxin B
effect of pretreatment on EPI or MALP2 induced IL-6 levels (BM-MSC [5]; BM-MSC, endotoxin control): did not affect

— patent US20160175485A1, “COMBINATION THERAPY TO PROMOTE WOUND HEALING” (THE REGENTS OF THE UNIVERSITY OF CALIFORNIA, priority 2013, published 2016)
